1 compound from article PMC8333425, “Discovery of a dual Ras and ARF6 inhibitor from a GPCR endocytosis screen” (Nature Communications, 2021) can be followed below.

This assay concerns B2R. The assay is described as follows: Endosomal BRET assay of agonist-mediated B2R internalization (B2R-RlucII / Endo-rGFP). The format is cell-based, human. An excerpt:
We performed a HT campaign in HEK293 cells using the bystander endosomal BRET sensor, which consists of a Renilla luciferase (RlucII)-tagged AT1R and an acceptor renilla GFP (rGFP) anchored to endosomes through an Endofin-FYVE (Endo-rGFP) domain[12]. AngII-mediated trafficking of AT1R to endosomes was screened against commercial libraries of ~115,000 small molecules (Fig. 1a and Supplementary Data 1). Because our assay is based on luminescence and fluorescence, we excluded 6610 compounds that quenched more than 50% of the luciferase or GFP signals. After excluding 5 AT1R antagonists, we conserved hit compounds blocking by more than 40%, as well as those potentiating by more than 100% receptor internalization. From this collection of 943 compounds, a second validation on AT1R internalization was performed using the same BRET assay, as well as on the agonist-mediated B2R internalization, this time using B2R-RlucII and Endo-rGFP. Only compounds that were revalidated on AT1R and affected B2R endocytosis were kept, which included forty hits (20 potentiators and 20 inhibitors) (Fig. 1b and Supplementary Data 2). We focused on inhibitors that were commercially available at the beginning of the project and tested their cell toxicity by microscopy, looking at cells expressing B2R tagged with YFP, which highlights cell contours and potential morphological changes, such as rounding up of cells following treatment with 50 μM of the compounds that may have indicated cell death. None of the inhibitors tested caused abnormal cell morphological changes when cells were treated with compounds as compared to DMSO-treated cells. Inhibitors were also assessed in terms of structure novelty, derivatization potential, and commercial availability of analogs (within 95–98% similarity from Tanimoto metric, Sci-Finder, https://scifinder-n.cas.org), for structure-activity relationship studies (SAR). They were scored 1–5, from best to worst. We excluded compounds with potential nucleophilic reactivity (e.g., Michael addition: compounds 7, 26, and 27), those reported to have biological activities (compounds 8, 20, 25, 30, and 35) and/or showing autofluorescence (compound 26). Compound 19 ranked high, but only had one other molecule with a similar structure available. Although other molecules could be interesting in their own rights as endocytosis inhibitors (e.g., compounds 1, 9, 11, 12, 13, 24, 31, and 37), we focused on compound 21 (Fig. 1c) because not only did it rank high in our analysis, but it was also the only compound with substantially more similar analogs commercially available at the time of these investigations. In the screen and the follow-up validation assay, 21 inhibited more than 50% AT1R internalization and more than 65% B2R internalization (Supplementary Data 2). […] Because β-arrestins are critically involved in GPCR endocytosis and trafficking in cells, we assessed 21’s effects on β-arrestins’ recruitment to AT1R and B2R at the PM using a BRET assay, as well as their trafficking into endosomes by microscopy.
HEK293SL cells were seeded at a density of 7.5 × 10^5 cells per 100-mm dish and 24 h later, transiently transfected as such. For receptor internalization experiments, cells were transfected with 0.12 μg AT1R-RlucII, B2R-RlucII, or β2AR-RlucII and 0.48 μg of either rGFP-CAAX (to assess removal from the PM) or rGFP-FYVE (to assess accumulation in the endosomes). For β-arrestin recruitment assays, cells were transfected with 0.48 μg of receptor-YFP along with 0.12 μg of β-arrestin-RlucII. For β-arrestin/AP-2 binding experiments, cells were transfected with 1 μg Flag-AT1R, 1 μg β2-Adaptin-YFP, and 0.12 μg β-arrestin2-RlucII. For G protein activation, cells were transfected with 3 μg of sp-Flag-AT1R along with either 4.5 μg of the Gαq-polycistronic BRET sensor or 0.24 μg of the Gαi3-RlucII and 0.6 μg of GFP10-Gγ2 and Gβ1 sensors or 0.12 μg PKN-RBD-RlucII and 0.48 μg of rGFP-CAAX. […]
On the technique in general: In BRET a luciferase serves as donor, and the signal depends on an acceptor being close.

What is called IC50 is the concentration needed to halve the response being measured. `CC(C)C(=O)N1CCN(c2ccc(NC(=O)c3cc4ccccc4o3)cc2Cl)CC1` [Compound 21]: the concentration for half-maximal inhibition (IC50) (Homo sapiens, BK, into endosomes, read-out: IC50 for inhibition of B2R internalization) came to 11 µM. Further, the “B2R internalization into endosomes, ligand-promoted BRET (Mean)” value by setting is: (Log [Comp21] (M) -4.3) 20.7288 percent compared to DMSO; (Log [Comp21] (M) -4.6) 30.2526 percent compared to DMSO; (Log [Comp21] (M) -5) 61.9767 percent compared to DMSO; (Log [Comp21] (M) -5.3) 83.8073 percent compared to DMSO; (Log [Comp 21] (M) -6) 104.977 percent compared to DMSO; (Log [Comp21] (M) -6.3) 107.04 percent compared to DMSO. Further, the “B2R internalization into endosomes, ligand-promoted BRET (Mean)” value (Log [Comp 21] (M) -7) is 102.555 percent compared to DMSO. Moreover, the “inhibition of B2R internalization” value (follow-up validation assay) is given as “more than 65%”. Besides, the “B2R Inhibition (%DMSO)” value (one experiment, negative = potentiation) came out at 66.5725 %DMSO.
